Columns and labels:
[1] = biological target: wild-type un-phosphorylated FGFR3 (Homo sapiens, UniProt P22607); test: FGFR Enzymatic Assay (FRET peptide phosphorylation), FGFR3; assay type: biochemical; conditions: wild-type un-phosphorylated protein; pre-incubated for 4 hours; ATP near or below Km
Description: (§1) The inhibitor potency of the exemplified compounds was determined in an enzyme discontinuous assay that measures peptide phosphorylation using FRET measurements to detect product formation. Inhibitors were serially diluted in DMSO and a volume of 0.2 μL was transferred to the wells of a 384-well plate. […] Appropriate controls (enzyme blank and enzyme with no inhibitor) were included on the plate. […] The ATP Km values were pre-determined in a separate series of experiments. […] The plate was allowed to equilibrate for ˜10 minutes at ambient temperature before scanning on a PheraStar plate reader (BMG Labtech) instrument.
(§2) Either GraphPad prism or XLfit was used to analyze the data. The IC50 values were derived by fitting the data to a four parameter logistic equation producing a sigmoidal dose-response curve with a variable Hill coefficient. Prism equation: Y=Bottom+(Top−Bottom)/(1+10^((LogIC50−X)*Hill slope)); XLfit equation: Y=(A+((B−A)/(1+((X/C)^D)))) where X is the logarithm of inhibitor concentration and Y is the response.

[2] = biological target: wild-type un-phosphorylated FGFR1 (Homo sapiens, UniProt P11362); test: FGFR Enzymatic Assay (FRET peptide phosphorylation), FGFR1; assay type: biochemical; conditions: wild-type un-phosphorylated protein; pre-incubated for 4 hours; ATP near or below Km
Description: as §1, §2

Sequence of wild-type un-phosphorylated FGFR1 (P11362 22-822): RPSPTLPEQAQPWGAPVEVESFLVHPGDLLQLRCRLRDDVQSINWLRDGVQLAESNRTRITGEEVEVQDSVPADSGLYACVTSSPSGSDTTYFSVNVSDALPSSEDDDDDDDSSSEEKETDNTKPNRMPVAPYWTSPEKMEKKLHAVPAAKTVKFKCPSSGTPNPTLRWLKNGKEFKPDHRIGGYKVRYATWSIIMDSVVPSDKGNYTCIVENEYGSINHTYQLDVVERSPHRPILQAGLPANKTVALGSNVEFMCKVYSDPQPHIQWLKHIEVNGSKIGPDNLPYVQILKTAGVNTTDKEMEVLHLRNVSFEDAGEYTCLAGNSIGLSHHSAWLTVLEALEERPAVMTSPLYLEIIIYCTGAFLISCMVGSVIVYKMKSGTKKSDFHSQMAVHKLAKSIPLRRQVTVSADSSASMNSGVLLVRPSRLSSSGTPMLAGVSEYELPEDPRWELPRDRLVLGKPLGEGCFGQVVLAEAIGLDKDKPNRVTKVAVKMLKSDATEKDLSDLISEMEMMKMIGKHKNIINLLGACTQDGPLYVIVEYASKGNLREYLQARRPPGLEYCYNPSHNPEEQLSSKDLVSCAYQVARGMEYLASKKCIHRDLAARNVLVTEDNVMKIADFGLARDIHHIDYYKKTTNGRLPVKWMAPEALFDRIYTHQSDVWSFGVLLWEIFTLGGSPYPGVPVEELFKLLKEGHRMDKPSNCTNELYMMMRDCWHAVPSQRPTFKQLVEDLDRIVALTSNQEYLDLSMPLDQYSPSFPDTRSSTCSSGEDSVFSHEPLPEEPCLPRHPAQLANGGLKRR
Sequence of wild-type un-phosphorylated FGFR3 (P22607 23-806): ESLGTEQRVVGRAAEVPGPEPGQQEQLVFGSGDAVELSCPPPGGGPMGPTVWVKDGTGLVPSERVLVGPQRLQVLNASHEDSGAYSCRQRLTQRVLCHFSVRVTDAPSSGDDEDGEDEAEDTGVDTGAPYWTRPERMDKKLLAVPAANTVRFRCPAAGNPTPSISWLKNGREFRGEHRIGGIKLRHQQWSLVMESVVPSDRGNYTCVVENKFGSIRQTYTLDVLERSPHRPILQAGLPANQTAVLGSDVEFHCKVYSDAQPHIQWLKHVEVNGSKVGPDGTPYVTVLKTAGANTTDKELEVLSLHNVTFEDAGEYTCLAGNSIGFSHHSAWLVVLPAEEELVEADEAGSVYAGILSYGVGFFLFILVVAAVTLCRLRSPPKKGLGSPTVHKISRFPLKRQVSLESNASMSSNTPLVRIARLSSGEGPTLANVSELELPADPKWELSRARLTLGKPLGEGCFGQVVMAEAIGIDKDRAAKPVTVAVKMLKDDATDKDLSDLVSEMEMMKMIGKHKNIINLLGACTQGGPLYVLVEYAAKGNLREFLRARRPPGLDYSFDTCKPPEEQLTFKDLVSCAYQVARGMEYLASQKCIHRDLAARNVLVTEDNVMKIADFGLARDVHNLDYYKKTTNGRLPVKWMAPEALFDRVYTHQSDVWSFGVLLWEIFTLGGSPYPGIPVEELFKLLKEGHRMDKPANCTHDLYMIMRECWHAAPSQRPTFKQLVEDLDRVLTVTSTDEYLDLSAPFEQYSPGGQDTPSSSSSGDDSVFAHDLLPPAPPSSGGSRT

Compound `CNC(=O)c1cc(F)c(F)c(-c2cnc3cc(-c4cnn(C)c4)c(O[C@H]4CCNC4)nn23)c1` [Example 17, (S)-3,4-Difluoro-N-methyl-5-(7-(1-methyl-1H-pyrazol-4-yl)-6-(pyrrolidin-3-yloxy)imidazo[1,2-b]pyridazin-3-yl)benzamide] has an IC50 [1] of 10 to 100 nM and an IC50 [2] of at least 400 nM.

In the case of `COc1nn2c(-c3cc(C(=O)NCC(F)(F)F)ccc3F)cnc2cc1-c1cnn(C)c1` [Example 14, 4-Fluoro-3-(6-methoxy-7-(1-methyl-1H-pyrazol-4-yl)imidazo[1,2-b]pyridazin-3-yl)-N-(2,2,2-trifluoroethyl)benzamide], the IC50 [1] is reported as 10 to 100 nM and the IC50 [2] is reported as 10 to 100 nM.

For `Cn1cc(-c2cc3ncc(-c4ccc5oncc5c4)n3nc2OC2CCOC2)cn1` (stereo not shown) [Example 66, 5-(7-(1-Methyl-1H-pyrazol-4-yl)-6-((tetrahydrofuran-3-yl)oxy)imidazo[1,2-b]pyridazin-3-yl)benzo[d]isoxazole], the IC50 [1] was 10 to 100 nM and the IC50 [2] was 100 to 400 nM.

`Cc1cc(-c2cn(C)nn2)cc(-c2cnc3cc(-c4cnn(C)c4)c(O[C@H]4CCOC4)nn23)c1F` [Example 39, (S)-3-(2-Fluoro-3-methyl-5-(1-methyl-1H-1,2,3-triazol-4-yl)phenyl)-7-(1-methyl-1H-pyrazol-4-yl)-6-((tetrahydrofuran-3-yl)oxy)imidazo[1,2-b]pyridazine] gave an IC50 [1] of 100 to 400 nM and an IC50 [2] of at least 400 nM.

`CNC(=O)c1cc(F)c(F)c(-c2cnc3cc(-c4cnn(C)c4)c(O[C@H]4CCN(C)C4)nn23)c1` [Example 16, (S)-3,4-Difluoro-N-methyl-5-(7-(1-methyl-1H-pyrazol-4-yl)-6-((1-methylpyrrolidin-3-yl)oxy)imidazo[1,2-b]pyridazin-3-yl)benzamide] was tested, and the IC50 [1] was at least 400 nM and the IC50 [2] was at least 400 nM.

Work on `CNC(=O)c1cc(-c2ccc(F)cc2F)cc(-c2cnc3cc(-c4cnn(C)c4)c(OC)nn23)c1` [Example 11, 2′,4′-Difluoro-5-(6-methoxy-7-(1-methyl-1H-pyrazol-4-yl)imidazo[1,2-b]pyridazin-3-yl)-N-methyl-[1,1′-biphenyl]-3-carboxamide] yielded an IC50 [1] of under 10 nM and an IC50 [2] of 10 to 100 nM.

`COc1nn2c(-c3cccc(CC#N)c3)cnc2cc1-c1cnn(C)c1` [Example 7, 2-(3-(6-Methoxy-7-(1-methyl-1H-pyrazol-4-yl)imidazo[1,2-b]pyridazin-3-yl)phenyl)acetonitrile] gave an IC50 [1] of 10 to 100 nM and an IC50 [2] of 10 to 100 nM.

With `COc1nn2c(-c3cccc(NC(C)=O)c3)cnc2cc1-c1cnn(C)c1` [Example 10, N-(3-(6-Methoxy-7-(1-methyl-1H-pyrazol-4-yl)imidazo[1,2-b]pyridazin-3-yl)phenyl)acetamide] the IC50 [1] was under 10 nM and the IC50 [2] was under 10 nM.

For `CNC(=O)c1cc(-c2cnc3cc(-c4cnn(C)c4)c(O[C@H]4CCOC4)nn23)c(F)c(N(C)C)c1` [Example 37, (S)-3-(Dimethylamino)-4-fluoro-N-methyl-5-(7-(1-methyl-1H-pyrazol-4-yl)-6-((tetrahydrofuran-3-yl)oxy)imidazo[1,2-b]pyridazin-3-yl)benzamide], the IC50 [1] was 10 to 100 nM and the IC50 [2] was 100 to 400 nM.

`CNC(=O)c1cncc(-c2cnc3cc(-c4cnn(C)c4)c(OCC(F)F)nn23)c1` [Example 50, 5-(6-(2,2-Difluoroethoxy)-7-(1-methyl-1H-pyrazol-4-yl)imidazo[1,2-b]pyridazin-3-yl)-N-methylnicotinamide] was tested, and the IC50 [1] was 10 to 100 nM and the IC50 [2] was at least 400 nM.

With `Cn1cc(-c2cc3ncc(-c4ccc5cnn(C)c5c4)n3nc2OC2CCOC2)cn1` (stereo not shown) [Example 65, 3-(1-Methyl-1H-indazol-6-yl)-7-(1-methyl-1H-pyrazol-4-yl)-6-((tetrahydrofuran-3-yl)oxy)imidazo[1,2-b]pyridazine] the IC50 [1] was 100 to 400 nM and the IC50 [2] was at least 400 nM.

`Cn1cc(-c2cc3ncc(-c4cccc(-n5cccn5)c4)n3nc2OC2COC2)cn1` [Example 61, 3-(3-(1H-Pyrazol-1-yl)phenyl)-7-(1-methyl-1H-pyrazol-4-yl)-6-(oxetan-3-yloxy)imidazo[1,2-b]pyridazine] showed an IC50 [1] of 10 to 100 nM and an IC50 [2] of 10 to 100 nM.

`COc1nn2c(-c3cccc(N4CCOCC4)c3)cnc2cc1-c1cnn(C)c1` [Example 6, 4-(3-(6-Methoxy-7-(1-methyl-1H-pyrazol-4-yl)imidazo[1,2-b]pyridazin-3-yl)phenyl)morpholine] showed an IC50 [1] of 100 to 400 nM and an IC50 [2] of 100 to 400 nM.

Work on `CNC(=O)c1cncc(-c2cnc3cc(-c4cnn(C)c4)c(OC4COC4)nn23)c1` [Example 15, N-Methyl-5-(7-(1-methyl-1H-pyrazol-4-yl)-6-(oxetan-3-yloxy)imidazo[1,2-b]pyridazin-3-yl)nicotinamide] yielded an IC50 [1] of under 10 nM and an IC50 [2] of 10 to 100 nM.

`CNS(=O)(=O)c1cccc(-c2cnc3cc(-c4cnn(C)c4)c(OC)nn23)c1` [Example 8, 3-(6-Methoxy-7-(1-methyl-1H-pyrazol-4-yl)imidazo[1,2-b]pyridazin-3-yl)-N-methylbenzenesulfonamide] showed an IC50 [1] of under 10 nM and an IC50 [2] of under 10 nM.

With `COc1nn2c(-c3cncc(C)c3)cnc2cc1-c1cnn(C)c1` [Example 3, 6-Methoxy-7-(1-methyl-1H-pyrazol-4-yl)-3-(5-methylpyridin-3-yl)imidazo[1,2-b]pyridazine] the IC50 [1] was 100 to 400 nM and the IC50 [2] was at least 400 nM.

`COc1nn2c(-c3cccc(C(C)(C)O)c3)cnc2cc1-c1cnn(C)c1` [Example 9, 2-(3-(6-Methoxy-7-(1-methyl-1H-pyrazol-4-yl)imidazo[1,2-b]pyridazin-3-yl)phenyl)propan-2-ol] was tested, and the IC50 [1] was 10 to 100 nM and the IC50 [2] was 10 to 100 nM.

Compound `CNC(=O)c1ccc(OC)c(-c2cnc3cc(-c4cnn(C)c4)c(OC)nn23)c1` [Example 12, 4-Methoxy-3-(6-methoxy-7-(1-methyl-1H-pyrazol-4-yl)imidazo[1,2-b]pyridazin-3-yl)-N-methylbenzamide] has an IC50 [1] of at least 400 nM and an IC50 [2] of at least 400 nM.

Work on `CNC(=O)c1cc(-c2cnc3cc(-c4cnn(C)c4)c(O[C@H]4CCOC4)nn23)c(F)c(C2CC2)c1` [Example 38, (S)-3-Cyclopropyl-4-fluoro-N-methyl-5-(7-(1-methyl-1H-pyrazol-4-yl)-6-((tetrahydrofuran-3-yl)oxy)imidazo[1,2-b]pyridazin-3-yl)benzamide] yielded an IC50 [1] of under 10 nM and an IC50 [2] of 10 to 100 nM.

For `CNC(=O)c1cccc(-c2cnc3cc(-c4cnn(C)c4)c(OC4CC(C#N)C4)nn23)c1` (stereo not shown) [Example 56, 3-(6-(3-Cyanocyclobutoxy)-7-(1-methyl-1H-pyrazol-4-yl)imidazo[1,2-b]pyridazin-3-yl)-N-methylbenzamide], the IC50 [1] was 100 to 400 nM and the IC50 [2] was 100 to 400 nM.

Work on `COc1nn2c(-c3ccc4ncccc4c3)cnc2cc1-c1cnn(C)c1` [Example 5, 6-(6-Methoxy-7-(1-methyl-1H-pyrazol-4-yl)imidazo[1,2-b]pyridazin-3-yl)quinoline] yielded an IC50 [1] of 100 to 400 nM and an IC50 [2] of 100 to 400 nM.

For `CNC(=O)c1cc(F)c(F)c(-c2cnc3cc(-c4cnn(C)c4)c(O[C@H]4CCNC4=O)nn23)c1` [Example 18, (S)-3,4-Difluoro-N-methyl-5-(7-(1-methyl-1H-pyrazol-4-yl)-6-((2-oxopyrrolidin-3-yl)oxy)imidazo[1,2-b]pyridazin-3-yl)benzamide], the IC50 [1] was under 10 nM and the IC50 [2] was 10 to 100 nM.

For `CNC(=O)c1ccc(C#N)c(-c2cnc3cc(-c4cnn(C)c4)c(OC)nn23)c1` [Example 13, 4-Cyano-3-(6-methoxy-7-(1-methyl-1H-pyrazol-4-yl)imidazo[1,2-b]pyridazin-3-yl)-N-methylbenzamide], the IC50 [1] was at least 400 nM and the IC50 [2] was at least 400 nM.

From patent US12012409B2, “Bicyclic heterocycles as FGFR inhibitors” (Incyte Corporation, priority 2020, dated 2024)
